Literature values, collected in PubChem BioAssay AID1259409 (Chemical Carcinogenesis Research Information System (CCRIS), 2018).

Test system: rodent chemically induced tumor inhibition, incidence and multiplicity
Assay: CCRIS tumor inhibitor studies
Source text: The CCRIS database contains chemical records with carcinogenicity, mutagenicity, tumor promotion, and tumor inhibition test results. It was developed by the National Cancer Institute (NCI). Data are derived from studies cited in primary journals, current awareness tools, NCI reports, and other sources. Test results have been reviewed by experts in carcinogenesis and mutagenesis.
CCRIS provides historical information from the years 1985 - 2011. It is no longer updated.
This is an archive assay for CCRIS tumor inhibitor studies.

SMILES: C=C1C(=O)O[C@@H]2/C=C(\C)CCC=C(C)CC[C@@H]12
- tumour outcome (control, treated, inhibition, significance) (Carcinogen: AZOXYMETHANE, 25843-45-2, Dose [Inhibitor]: 0, 0.02% IN DIET FOR 4 WK BEGINNING AT TIME OF CARCINOGEN TREATMENT (STUDY DURATION: 33 WK), Route [Inhibitor]: ORAL, Species: RAT, Strain/Sex: F344/MALE, Target Tissue: Type of Lesion: INTESTINE: ADENOMA OR ADENOCARCINOMA, Dose [Carcinogen]: 15 MG/KG BW 1/WK FOR 3 WK, Promoter: NONE USED): 15/30 (50%), 5/29 (17%), 66%, p<0.05

SMILES: O=C(O)CC(O)(CC(=O)O)C(=O)O
- tumour outcome (control, treated, inhibition, significance) (Carcinogen: N-BUTYL-N-(4-HYDROXYBUTYL)NITROSAMINE, 3817-11-6, Dose [Inhibitor]: 4.85% IN BASAL DIET ADMINISTERED SIMULTANEOUSLY WITH CARCINOGEN DOSE FOR 20 WK (STUDY DURATION: 20 WK), Route [Inhibitor]: ORAL, Species: RAT, Strain/Sex: F344/MALE, Target Tissue: Type of Lesion: BLADDER: CARCINOMA, Dose [Carcinogen]: 0.025% IN DRINKING WATER FOR 20 WK, Promoter: NONE USED): 3/15 (20%), 3/15 (20%), 0%, not significant
- tumour outcome (control, treated, inhibition, significance) (Carcinogen: N-BUTYL-N-(4-HYDROXYBUTYL)NITROSAMINE, 3817-11-6, Dose [Inhibitor]: 4.85% IN BASAL DIET ADMINISTERED SIMULTANEOUSLY WITH CARCINOGEN DOSE FOR 20 WK (STUDY DURATION: 20 WK), Route [Inhibitor]: ORAL, Species: RAT, Strain/Sex: F344/MALE, Target Tissue: Type of Lesion: BLADDER: PAPILLOMA, Dose [Carcinogen]: 0.025% IN DRINKING WATER FOR 20 WK (FOR A TOTAL INTAKE OF 4.1 MMOL/RAT), Promoter: NONE USED): 4/15 (27%), 2/15 (13%), 50%, not significant
- tumour outcome (control, treated, inhibition, significance) (Carcinogen: N-BUTYL-N-(4-HYDROXYBUTYL)NITROSAMINE, 3817-11-6, Dose [Inhibitor]: 6.50% IN BASAL DIET ADMINISTERED SIMULTANEOUSLY WITH CARCINOGEN DOSE FOR 20 WK (STUDY DURATION: 20 WK), Route [Inhibitor]: ORAL, Species: RAT, Strain/Sex: F344/MALE, Target Tissue: Type of Lesion: BLADDER: CARCINOMA, Dose [Carcinogen]: 0.025% IN DRINKING WATER FOR 20 WK, Promoter: NONE USED): 3/15 (20%), 12/15 (80%), -300%, p<0.01
- tumour outcome (control, treated, inhibition, significance) (Carcinogen: N-BUTYL-N-(4-HYDROXYBUTYL)NITROSAMINE, 3817-11-6, Dose [Inhibitor]: 6.50% IN BASAL DIET ADMINISTERED SIMULTANEOUSLY WITH CARCINOGEN DOSE FOR 20 WK (STUDY DURATION: 20 WK), Route [Inhibitor]: ORAL, Species: RAT, Strain/Sex: F344/MALE, Target Tissue: Type of Lesion: BLADDER: PAPILLOMA, Dose [Carcinogen]: 0.025% IN DRINKING WATER FOR 20 WK (FOR A TOTAL INTAKE OF 6.8 MMOL/RAT), Promoter: NONE USED): 4/15 (27%), 3/15 (20%), 25%, not significant
- tumour outcome (control, treated, inhibition, significance) (Carcinogen: N-ETHYL-N-(4-HYDROXYBUTYL)NITROSAMINE, 54897-62-0, Dose [Inhibitor]: 4.85% IN BASAL DIET ADMINISTERED SIMULTANEOUSLY WITH CARCINOGEN DOSE FOR 20 WK (STUDY DURATION: 20 WK), Route [Inhibitor]: ORAL, Species: RAT, Strain/Sex: F344/MALE, Target Tissue: Type of Lesion: BLADDER: CARCINOMA, Dose [Carcinogen]: 0.021% IN DRINKING WATER FOR 20 WK, Promoter: NONE USED): 13/15 (87%), 14/15 (93%), -8%, not significant
- tumour outcome (control, treated, inhibition, significance) (Carcinogen: N-ETHYL-N-(4-HYDROXYBUTYL)NITROSAMINE, 54897-62-0, Dose [Inhibitor]: 4.85% IN BASAL DIET ADMINISTERED SIMULTANEOUSLY WITH CARCINOGEN DOSE FOR 20 WK (STUDY DURATION: 20 WK), Route [Inhibitor]: ORAL, Species: RAT, Strain/Sex: F344/MALE, Target Tissue: Type of Lesion: BLADDER: PAPILLOMA, Dose [Carcinogen]: 0.021% IN DRINKING WATER FOR 20 WK, Promoter: NONE USED): 14/15 (93%), 13/15 (87%), 7%, not significant
- tumour outcome (control, treated, inhibition, significance) (Carcinogen: N-ETHYL-N-(4-HYDROXYBUTYL)NITROSAMINE, 54897-62-0, Dose [Inhibitor]: 6.50% IN BASAL DIET ADMINISTERED SIMULTANEOUSLY WITH CARCINOGEN DOSE FOR 20 WK (STUDY DURATION: 20 WK), Route [Inhibitor]: ORAL, Species: RAT, Strain/Sex: F344/MALE, Target Tissue: Type of Lesion: BLADDER: CARCINOMA, Dose [Carcinogen]: 0.021% IN DRINKING WATER FOR 20 WK, Promoter: NONE USED): 13/15 (87%), 15/15 (100%), -15%, not significant
- tumour outcome (control, treated, inhibition, significance) (Carcinogen: N-ETHYL-N-(4-HYDROXYBUTYL)NITROSAMINE, 54897-62-0, Dose [Inhibitor]: 6.50% IN BASAL DIET ADMINISTERED SIMULTANEOUSLY WITH CARCINOGEN DOSE FOR 20 WK (STUDY DURATION: 20 WK), Route [Inhibitor]: ORAL, Species: RAT, Strain/Sex: F344/MALE, Target Tissue: Type of Lesion: BLADDER: PAPILLOMA, Dose [Carcinogen]: 0.021% IN DRINKING WATER FOR 20 WK, Promoter: NONE USED): 14/15 (93%), 13/15 (87%), 7%, not significant
- tumour outcome (control, treated, inhibition, significance) (Carcinogen: N-ETHYL-N-HYDROXYETHYLNITROSAMINE, 13147-25-6, Dose [Inhibitor]: 0, 5% IN DIET OF UNILATERALLY NEPHRECTOMIZED RATS BEGINNING POST CARCINOGEN TREATMENT AND CONTINUING FOR 18 WK (STUDY DU, Route [Inhibitor]: ORAL, Species: RAT, Strain/Sex: WISTAR/MALE, Target Tissue: Type of Lesion: KIDNEY: RENAL CELL TUMOR, Dose [Carcinogen]: 1000 PPM IN DIET FOR 2 WK, Promoter: POTASSIUM DIBASIC PHOSPHATE, 7758-11-4): 15/15 (100%), 4/14 (29%), 71%, p<0.05

SMILES: O=[N+]([O-])[O-].O=[N+]([O-])[O-].O=[N+]([O-])[O-].[Bi+3]
- tumour outcome (control, treated, inhibition, significance) (Carcinogen: CISPLATIN, 15663-27-1, Dose [Inhibitor]: 0, 50 UMOL/KG/D 3 D/WK FOR 8 WK ADMINISTERED 24 HR PRIOR TO EACH CARCINOGEN DOSE (STUDY DURATION: 24 WK), Route [Inhibitor]: SUBCUTANEOUS, Species: MOUSE, Strain/Sex: STRAIN-A/FEMALE, Target Tissue: Type of Lesion: LUNG: TUMOR, Dose [Carcinogen]: 2 UMOL/KG/D 3 D/WK FOR 8 WK, Promoter: NONE USED): 100%, 54%, 46%, p<0.01
- tumour outcome (control, treated, inhibition, significance) (Carcinogen: MELPHALAN, 148-82-3, Dose [Inhibitor]: 0, 50 UMOL/KG/D 3 D/WK FOR 8 WK ADMINISTERED 24 HR PRIOR TO EACH CARCINOGEN DOSE (STUDY DURATION: 24 WK), Route [Inhibitor]: SUBCUTANEOUS, Species: MOUSE, Strain/Sex: STRAIN-A/FEMALE, Target Tissue: Type of Lesion: LUNG: TUMOR, Dose [Carcinogen]: 4 UMOL/KG/D 3 D/WK FOR 8 WK, Promoter: NONE USED): 100%, 100%, 0%, not significant

SMILES: Cc1ccc(O)c(C(C)(C)C)c1
- tumour outcome (control, treated, inhibition, significance) (Carcinogen: 7,12-DIMETHYLBENZ[A]ANTHRACENE, 57-97-6, Dose [Inhibitor]: 1.0% IN POWDERED DIET BEGINNING 1 WK POST CARCINOGEN DOSE FOR 51 WK (STUDY DURATION: 52 WK), Route [Inhibitor]: ORAL, Species: RAT, Strain/Sex: SPRAGUE-DAWLEY/FEMALE, Target Tissue: Type of Lesion: EAR DUCT: BENIGN TUMOR, Dose [Carcinogen]: 2.5 MG/100 G BW IN 0.5 ML SESAME OIL ONCE, Promoter: NONE USED): 7/19 (37%), 5/19 (26%), 29%, not calculated
- tumour outcome (control, treated, inhibition, significance) (Carcinogen: 7,12-DIMETHYLBENZ[A]ANTHRACENE, 57-97-6, Dose [Inhibitor]: 1.0% IN POWDERED DIET BEGINNING 1 WK POST CARCINOGEN DOSE FOR 51 WK (STUDY DURATION: 52 WK), Route [Inhibitor]: ORAL, Species: RAT, Strain/Sex: SPRAGUE-DAWLEY/FEMALE, Target Tissue: Type of Lesion: MAMMARY GLAND: CARCINOMA, Dose [Carcinogen]: 2.5 MG/100 G BW IN 0.5 ML SESAME OIL ONCE, Promoter: NONE USED): 6/19 (32%), 6/19 (32%), 0%, not significant
- tumour outcome (control, treated, inhibition, significance) (Carcinogen: 7,12-DIMETHYLBENZ[A]ANTHRACENE, 57-97-6, Dose [Inhibitor]: 1.0% IN POWDERED DIET BEGINNING 1 WK POST CARCINOGEN DOSE FOR 51 WK (STUDY DURATION: 52 WK), Route [Inhibitor]: ORAL, Species: RAT, Strain/Sex: SPRAGUE-DAWLEY/FEMALE, Target Tissue: Type of Lesion: MAMMARY GLAND: FIBROADENOMA, Dose [Carcinogen]: 2.5 MG/100 G BW IN 0.5 ML SESAME OIL ONCE, Promoter: NONE USED): 15/19 (79%), 2/19 (11%), 87%, p<0.001
